{"source": "patent US20080058249A1", "about": "“Complexes” (Lipopeptide AB, priority 2004, published 2008)", "key": {"[1]": {"test_system": "elastase from Pseudomonas aeruginosa", "assay": "in vitro", "settings": "isolated enzyme elastase, pH 7.4", "description": "(§1) In this study we compared the enzymatic degradation rate of LL-37 in an aqueous buffered system to that of a colloidal solution of LL-37 in a galactolipid complex. The experimental procedures for enzymatic degradation were essentially as described using a reverse phase HPLC system (C-18) operating at 210 nm.\n(§2) In brief: Two stock solutions A and B were prepared. Solution A, “the reference”, contained 100 μg/ml of LL-37 in PBS, pH 7.4. Solution B, “the complex”, contained in addition to 100 μg/ml LL-37 in PBS, pH 7.4, 0.2% of galactolipids (w/w). Two sets of samples were prepared in Eppendorf tubes, 8 tubes from each stock solution. […] The reactions were kept at 37° C. and samples were withdrawn at predetermined intervals. The reactions were stopped by heating the samples to 100° C. for 5 minutes. After stopping, the reactions were stored at −18° C. prior analysis.\n(§3) All samples were analysed in duplicates and the peak area for LL-37 was normalized to that of the negative control, which was set to 1.00. Retention times are given as relative retention time (RRT) to LL-37, which is set to RRT=1.00."}, "[2]": {"biological_target": "elastase from Pseudomonas aeruginosa (Pseudomonas aeruginosa, UniProt P14756)", "sequence (P14756 198-498)": "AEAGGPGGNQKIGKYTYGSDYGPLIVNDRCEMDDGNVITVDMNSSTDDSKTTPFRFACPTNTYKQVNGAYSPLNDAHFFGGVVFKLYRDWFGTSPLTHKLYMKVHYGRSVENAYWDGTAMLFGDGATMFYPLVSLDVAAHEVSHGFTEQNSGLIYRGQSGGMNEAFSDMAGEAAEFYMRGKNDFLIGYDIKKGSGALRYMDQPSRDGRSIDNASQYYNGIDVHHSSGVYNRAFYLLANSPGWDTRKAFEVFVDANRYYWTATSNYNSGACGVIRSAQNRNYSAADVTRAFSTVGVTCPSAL", "assay": "in vitro", "settings": "for RRT 0.66 degradation fragment, normalized peak area / RRT 0.88 degradation fragment, normalized peak area: elastase:peptide approx. 1:2500, 37° C.", "description": "as §1, §2, §3"}, "[3]": {"assay": "Ocular inspection of appearance of aqueous peptide/CPL-Galactolipid mixtures", "assay_type": "physicochemical", "settings": "after 2 h and 2 days of storage at room temperature; 0.20% CPL-Galactolipid; LL-25 68-98 ppm, LL-37 98-213 ppm, LL-38 50-102 ppm, LL-20 52-98 ppm", "description": "To prepare the solution of the complex the peptide and CPL-Galactolipid are weighed in a 100 ml glass flask and then PBS (10 mM sodium phosphate, 150 mM NaCl, pH 7.4) is added. The sample is vigorously shaken, using a suitable shaker at high speed, for 1-2 h or until the mixture has become clear, and is then allowed to equilibrate and settle for about 30 min at room temperature. Samples of LL-20, LL-25, LL-37 and LL-38 as trifluoroacetate salts and CPL-Galactolipid were prepared using the amounts stated in Table 1 below. The peptide mixtures all contained 0.20% CPL-Galactolipid.\nOcular inspections were made after 2 h and 2 days of storage at room temperature of the mixtures. […] The molecular weight of LL-20 was calculated to be 2.4 kDa."}, "Bacillius megaterium": {"test_system": "Bacillius megaterium", "assay": "Inhibition zone assay of antimicrobial activity", "assay_type": "cell-based", "settings": "complex with CPL-Galactolipid; LL-25 at 68 ppm", "description": "Test of antimicrobial activity of LL-20 and LL-25 complexes The antimicrobial activity was tested using an inhibition zone assay. As a test bacterium, Bacillius megaterium was used."}, "[4]": {"settings": "at certain weight ratios; cited from earlier work"}, "[5]": {"settings": "when complexed with galactolipids; cited from earlier work"}}, "data": [{"compound": "CC[C@H](C)[C@H](NC(=O)[C@H](CCCCN)NC(=O)[C@H](CCC(=O)O)NC(=O)[C@H](CCCCN)NC(=O)[C@H](CO)NC(=O)[C@H](CCCCN)NC(=O)[C@H](CCCNC(=N)N)NC(=O)[C@H](Cc1ccccc1)NC(=O)[C@H](Cc1ccccc1)NC(=O)[C@H](CC(=O)O)NC(=O)CNC(=O)[C@H](CC(C)C)NC(=O)[C@@H](N)CC(C)C)C(=O)NCC(=O)N[C@@H](CCCCN)C(=O)N[C@@H](CCC(=O)O)C(=O)N[C@@H](Cc1ccccc1)C(=O)N[C@@H](CCCCN)C(=O)N[C@@H](CCCNC(=N)N)C(=O)N[C@H](C(=O)N[C@H](C(=O)N[C@@H](CCC(N)=O)C(=O)N[C@@H](CCCNC(=N)N)C(=O)N[C@H](C(=O)N[C@@H](CCCCN)C(=O)N[C@@H](CC(=O)O)C(=O)N[C@@H](Cc1ccccc1)C(=O)N[C@@H](CC(C)C)C(=O)N[C@@H](CCCNC(=N)N)C(=O)N[C@@H](CC(N)=O)C(=O)N[C@@H](CC(C)C)C(=O)N[C@H](C(=O)N1CCC[C@H]1C(=O)N[C@@H](CCCNC(=N)N)C(=O)N[C@H](C(=O)N[C@@H](CCC(=O)O)C(=O)N[C@@H](CO)C(=O)O)[C@@H](C)O)C(C)C)[C@@H](C)CC)C(C)C)[C@@H](C)CC", "note": "[LL-37 in aqueous buffer]", "values": [{"measurement": "remaining at 1 min, 100 μg/ml", "setting": "[1]", "value": 30, "unit": "%"}, {"measurement": "remaining at 5 min, 100 μg/ml", "setting": "[1]", "value": 23, "unit": "%"}, {"measurement": "RRT 0.66 degradation fragment, normalized peak area", "setting": "[2]; 1 min", "value": 0.1}, {"measurement": "RRT 0.88 degradation fragment, normalized peak area", "setting": "[2]; 1 min", "value": 0.4}, {"measurement": "RRT 0.66 degradation fragment, normalized peak area", "setting": "[2]; 5 min", "value": 0.14}, {"measurement": "RRT 0.88 degradation fragment, normalized peak area", "setting": "[2]; 5 min", "value": 0.36}, {"measurement": "RRT 0.66 degradation fragment, normalized peak area", "setting": "[2]; 15 min", "value": 0.27}, {"measurement": "RRT 0.88 degradation fragment, normalized peak area", "setting": "[2]; 15 min", "value": 0.04}, {"measurement": "RRT 0.66 degradation fragment, normalized peak area", "setting": "[2]; 30 min", "value": 0.54}, {"measurement": "RRT 0.66 degradation fragment, normalized peak area", "setting": "[2]; 1 h", "value": 0.46}, {"measurement": "RRT 0.66 degradation fragment, normalized peak area", "setting": "[2]; 4 h", "value": 0.31}, {"measurement": "RRT 0.66 degradation fragment, normalized peak area", "setting": "[2]; 20 h", "value": 0.08}, {"measurement": "Degradation when treated with elastase", "setting": "[2]; elastase from Pseudomonas aeruginosa, 37° C., up to 20 h", "value": "rapidly degraded"}, {"measurement": "RRT 1.00 (LL-37) peak area normalized to negative control (1.00)", "setting": "[2]; time 0, 100 μg/ml LL-37, PBS pH 7.4, 37° C.", "value": 1.00}]}, {"compound": "LLGDFFRKSKEKIGKEFKRIVQRIK [LL-25]", "values": [{"measurement": "Ocular inspection of the mixtures", "setting": "[3]", "value": "clear or almost clear solutions"}, {"measurement": "Antimicrobial activity", "setting": "Bacillius megaterium", "value": "showed an antimicrobial activity"}]}, {"compound": "LLGDFFRKSKEKIGKEFKRIVQRIKDFLRNLVPRTES [LL-37]", "values": [{"measurement": "Formation of colloidal solutions with galactolipids", "setting": "[4]", "value": "formed stable, clear colloidal solutions"}, {"measurement": "In vitro cytotoxicity", "setting": "[5]", "value": "reduced"}, {"measurement": "Ocular inspection of the mixtures", "setting": "[3]", "value": "clear or almost clear solutions"}]}, {"compound": "LLGDFFRKSKEKIGKEFKRIVQRIKDFLRNLVPRTESS [LL-38]", "values": [{"measurement": "Ocular inspection of the mixtures", "setting": "[3]", "value": "clear or almost clear solutions"}]}]}
